Reference: US12115207B2, “Treatment of inflammation” (Ariel Scientific Innovations Ltd., priority 2019, dated 2024)
Bridges are numbered along the chain shown (N, C = ends).

Key:
[1] = tested on: crown-like structures (macrophages) in adipose tissue; test: Crown-like structures in adipose tissue (H&E histology) of submissive mice; assay type: in vivo; settings: sub-chronic 10 and 30 mg/kg, H&E staining, FIG. 2C
Method: The adipose tissue of submissive mice treated with 10 and 30 mg/kg of ALOS4 were excised and fixed with 4% formalin overnight at 4° C., followed by dehydration and paraffin embedding (Cat #BN0763, Barnaor). Serial sections of 5 μm thickness were cut and placed on charged glass slides (LE-14035838925, Leica, Germany) and incubated for 1 h at 60° C. At least three slides from each adipose tissue sample with 300 μm distance between sections were collected for histological staining. Prior to Hematoxylin and Eosin (H&E), all sections were subjected to de-paraffinized and hydrated by decreasing concentrations of ethanol in deionized water.
De-paraffinized and hydrated slides were immersed in Meyer's Hematoxylin solution (Cat #HX68597049, MERCK) for 5 min, washed for 5 min with tap water, and then immersed in Eosin solution (Cat #HX6109259, MERCK) for 2 min, rehydrated and mounted with Entalain.
Macrophages were evaluated by a scoring system using light microscopy. A score of 1 is characterized by the absence of crown like structures in framed field, 10-20 crowns characterize the score of 2, a score of 3—20-30 crown like structures, a score of 4—30-40 crowns and a score of 5—abundant crowns (40-50).

serum cytokines = test: Serum cytokine array after sub-chronic treatment of submissive mice; assay type: in vivo
Method: Submissive mice are derivates from “Sabra” strain were maintained under a 12 h light/12 h dark cycle with Purina rodent chow (Envigo, Israel) and water provided ad libitum. The animals were housed five per cage. All procedures with animals were performed after review and approval by the Institutional Animal Care and Use Committee of Ariel University.
Blood samples of submissive mice treated with control, as well as 10 and 30 mg/kg of ALOS4 were collected by terminal bleeding from the heart and centrifuged at 14,000 rpm for 20 min. Serum was removed to a new tube and stored at −80° C. for future use. Mouse XL Cytokine Array Kit (Cat #ARYO28, R&D) was used to detect the cytokines in the serum of submissive mice according to the manufacturer's instructions. Serum from treatment groups (saline, 10 and 30 mg/kg ALOS4) was added to each membrane. Streptavidin-HRP and Chemi Reagent Mix were used to detect the antibodies bound to the membrane. The membranes were then exposed (Image Quant LAS4000 mini; GE Healthcare, Milwaukee, WI, USA) and analyzed using ImageQuant TL software (GE Healthcare).

[2] = tested on: interferon type I signaling; test: ISRE response, HCT116 ISRE Luc reporter cells stimulated with Poly I:C; assay type: cell-based; settings: pretreatment with 0.3 μM for 48 h, FIG. 1B
Method: (§1) HT1080 cells transfected with mCherry reporter under an ISRE (Interferon-Sensitive Response Element) promoter and HCT116 with Luc reporter under ISRE promoter were used. Raw 264.7 (undifferentiated murine macrophages) cell line was also used. The cells were cultured in appropriate media: Dulbecco's Modified Eagle Medium (DMEM) (Cat #41965-039, Gibco) with 4.5 g/l glucose and L-glutamine augmented with 10% FBS (Gibco, Grand Island, NY), 100 U/ml penicillin and 100 μg/ml streptomycin in a humidified atmosphere at 37° C. with 5% CO2.
HCT116 ISRE Luc cells were plated in 96-well plates at 3×10^3 cells/well. The next day DMEM was replaced with DMEM containing 0.3 μM of ALOS4 or saline as control with/without PEI—transfection reagent, and cells continued to grow for 48 h. Following the 48 h incubation 1 μg/ml of Poly I:C was added for an additional 16 h incubation. After this second incubation the media was removed, 30 μl of Bright-Glo™ Luciferase Assay System (Promega, Cat #E2610) was added. Plate was read with plate reader on Luminescent parameters.

[3] = tested on: interferon type I signaling; test: ISRE response, HT1080 ISRE mCherry reporter cells stimulated with Poly I:C; assay type: cell-based; settings: pretreatment with 0.3 μM for 48 h, FIG. 1A, 1C
Method: as §1
HT1080 ISRE mCherry cells were plated in 6-well plates at 2×10^4 cells/well. […] Following the 48 hour incubation, 25 μg/well of Polyinosinic:polycytidylic acid (Poly I:C)—a chemical compound structurally similar to double-stranded RNA and acting via Toll Like Receptor-3 molecular pathway activation, was added for an additional 16 h incubation. After this second incubation, cells were subjected to fluorescent imaging followed by washing with 1×PBX, trypsinization and resuspension with 300 μl of 1×PBS. 200 μl of cell suspension were further loaded into 96-well black clear bottom plates. Strength of mCherry fluorescence signal was detected by an ELISA reader with multiple reads per well at 574Ex/610Em.

Raw267.4 cells = test: Nitric oxide level assay, LPS-induced macrophage differentiation; assay type: cell-based, mouse; settings: FIG. 2D
Method: Ability of ALOS4 to affect macrophage differentiation to pro- and anti-inflammatory macrophages was evaluated on mouse monocyte macrophages (Raw267.4) using the nitric oxide level assay. Cells were plated at a density of 1×10^5 cells/ml in 12 well plates for 12 h, followed by treatment with LPS (200 ng/ml) and ALOS4 (0.3 and 30 μM). Nitric oxide production of monocyte differentiation to pro-inflammatory M1 was detected with Griess reaction kit (Cat #G2930, Promega) according to the protocol. The absorbance was read at 540 nm with ELISA plate reader (Tecan infinite M200pro, Switzerland) and nitric oxide concentration was calculated using the Nitrite Standard Reference Curve.

[4] = 10 and 30 mg/kg i.v., every second day within 10 days, FIG. 2A

Substance: H-cycl (Cys-Ser-Ser-Ala-Gly-Ser-Leu-Phe-Cys)-OH (H-CSSAGSLFC-OH; disulfide 1-9 (inferred)) [ALOS4]
- frequency of crown-like structures in fat pads [1]: a decrease in frequency was observed
- IL-1α/IL-1F1 in blood (serum cytokines; [4]): did not change
- total interleukins in blood as compared to the control group (serum cytokines; [4]): downregulation
- pro-inflammatory markers (Jak-STAT signaling pathway) in serum (serum cytokines; sub-chronic 10 and 30 mg/kg, FIG. 2B): strong tendency toward down-regulation
- ability of cells to induce interferon type I signaling in response to Poly I:C (luciferase) [2]: suppressed
- ability of cells to induce interferon type I signaling in response to Poly I:C (mCherry fluorescence) [3]: suppressed
- nitric oxide (indicator of differentiation to pro-inflammatory macrophages) (Raw267.4 cells; LPS-induced, one-way ANOVA p<0.01 and p<0.001): significant dose-dependent decrease
- differentiation of macrophages to pro-inflammatory M1 (Raw267.4 cells; Raw267.4 cells, LPS 200 ng/ml, 0.3 and 30 μM for 24 hours): inhibited differentiation of the macrophages to pro-inflammatory M1 in a dose dependent manner
